Measurements: patent US12024510B2, “Pyrazolopyridine-diamides, their use as insecticide and processes for preparing the same” (PI INDUSTRIES LTD., priority 2017, dated 2024)

What was measured:
Format in all cases: in vivo
Spodoptera litura = Spodoptera litura diet incorporation method; settings: third instar larvae, dead and moribund combined, 96 h after release
Procedure: (§1) Test Solutions were Prepared According to the Procedure Described Herein Below (500 PPM):
(§2) • 1. Eppendorf Vortex mixer (ThermoMixer C) and 1.5 mL Eppendorf tubes • 2. Zirconia (Zirconium-Yttrium) beads having diameter of 0.8 to 1.0 mm • 3. Microscope • 4. Beaker 100 mL • 5. Micro-pipette Reagents: • 1. Surfactant Solution • 2. De-mineralized (DM) Water • 1. Weigh 10 mg of the compound of the present invention to be tested in an Eppendorf Tube. • 2. Add 200 mg of the Surfactant Solution into the tube. • 3. Add 600 mg of Zirconia beads into the above mixture. • 4. Fix the tube in Eppendorf Vortex mixer and start vortexing at 2000 rpm. • 5. Mix on Vortex mixer for 30 minutes. After 30 minutes, observe the sample over a microscope at 400× resolution. • 6. If the Maximum particle size is more than 5 μm or average particle size is more than 2 μm or the particle size distribution is uneven, continue vortexing for another 30 minutes and again check the particle size using the microscope. Continue till the average particle size is below 2 microns. • 7. When the required particle size is achieved, add 1.0 mL DM water into the tube, close the cap, shake the tube thoroughly and transfer the contents, along with the beads, into a beaker. • 8. To rinse the tube, add another 1.0 mL of DM water into the tube, close the cap, shake well and transfer this into the same beaker. • 9. Repeat Step no. 8 one more time so that the tube is rinsed well and the compound of the present invention to be tested is transferred to the beaker. • 10. Add 16.8 mL of DM water into the beaker and stir well. • 11. The homogeneous dispersion can then be decanted into a glass vial, immediately, to separate the Zirconia beads. • 12. Immediately use this sample for biological testing. • 13. Further dilutions can be prepared by taking appropriate quantity of the aliquot of Step 10, immediately after stirring, and diluting as per requirement. The sample solution must be well mixed just before biological testing.
(§3) Diet incorporation method was used, in which semi-synthetic diet was incorporated into the test solution when the temperature is approximately 50° C. in the bioassay containers and stirred thoroughly for properly mixing and then was allowed to cool for 30 min. The solidified diet was cut into equal pieces, and then each piece was transferred in one cell in Bio-assay trays. A single third instar starved larva was released into each of these cells of bioassay trays and the tray was covered with the lid. The bio-assay trays were kept under laboratory conditions at a temperature of 25° C. and Relative Humidity of 70%. Observations on dead, moribund and live larvae were recorded at 96 h after the release of larvae. Percent mortality was calculated by combining dead and moribund larvae. The following compound numbers

Plutella xylostella = assay: whole plant or invertebrate; settings: foliar, cabbage leaf dip, second instar larvae, dead and moribund combined, 72 h after release
Outline: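 Compounds milled with zirconia beads into surfactant dispersion (500 ppm stock), diluted in 0.01% Triton-X. Cabbage leaves dipped 10 s, shade-dried 20 min; one second-instar larva per cell, 25 °C, 70% RH. Mortality (dead plus moribund) scored at 72 h.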

Helicoverpa armigera = Helicoverpa armigera diet incorporation method; settings: third instar larvae, dead and moribund combined, 96 h after release
Procedure: as §1, §2
as §3, with “which and” for “which”

Compound | mortality at 300 ppm (Spodoptera litura) | mortality at 300 ppm (Plutella xylostella) | mortality at 300 ppm (Helicoverpa armigera)
Cc1cc2ccnn2c(C(=O)NCC2CCCO2)c1NC(=O)c1cc(Br)nn1-c1ncccc1Cl (racemic) [Compound 189, rac-(R)-6-(3-bromo-1-(3-chloropyridin-2-yl)-1H-pyrazole-5-carboxamido)-5-methyl-N-((tetrahydrofuran-2-yl)methyl)pyrazolo[1,5-a]pyridine-7-carboxamide] | > 70% | > 70% | 
COCCNC(=O)c1c(NC(=O)c2cc(OCC(F)(F)F)nn2-c2ncccc2Cl)c(C)cc2ccnn12 [Compound 17, 6-(1-(3-chloropyridin-2-yl)-3-(2,2,2-trifluoroethoxy)-1H-pyrazole-5-carboxamido)-N-(2-methoxyethyl)-5-methylpyrazolo[1,5-a]pyridine-7-carboxamide] | > 70% | > 70% | 
Cc1cc2ccnn2c(C(=O)NCCC#N)c1NC(=O)c1cc(OCC(F)(F)F)nn1-c1ncccc1Cl [Compound 47, 6-(1-(3-chloropyridin-2-yl)-3-(2,2,2-trifluoroethoxy)-1H-pyrazole-5-carboxamido)-N-(2-cyanoethyl)-5-methylpyrazolo[1,5-a]pyridine-7-carboxamide] | > 70% | > 70% | 
CCNC(=O)c1c(NC(=O)c2cc(N3CC(F)(F)C3)nn2-c2ncccc2Cl)c(C)cc2ccnn12 [Compound 83, 6-(1-(3-chloropyridin-2-yl)-3-(3,3-difluoroazetidin-1-yl)-1H-pyrazole-5-carboxamido)-N-ethyl-5-methylpyrazolo[1,5-a]pyridine-7-carboxamide] | > 70% |  | 
C=CCNC(=O)c1c(NC(=O)c2cc(N3CC(F)(F)C3)nn2-c2ncccc2Cl)c(C)cc2ccnn12 [Compound 86, N-allyl-6-(1-(3-chloropyridin-2-yl)-3-(3,3-difluoroazetidin-1-yl)-1H-pyrazole-5-carboxamido)-5-methylpyrazolo[1,5-a]pyridine-7-carboxamide] | > 70% |  | 
CCONC(=O)c1c(NC(=O)c2cc(OCC(F)(F)F)nn2-c2ncccc2Cl)c(C)cc2ccnn12 [Compound 115, 6-(1-(3-chloropyridin-2-yl)-3-(2,2,2-trifluoroethoxy)-1H-pyrazole-5-carboxamido)-N-ethoxy-5-methylpyrazolo[1,5-a]pyridine-7-carboxamide] |  | > 70% | > 70%
Cc1cc2ccnn2c(C(=O)NOC(C)C)c1NC(=O)c1cc(OCC(F)(F)F)nn1-c1ncccc1Cl [Compound 116, 6-(1-(3-chloropyridin-2-yl)-3-(2,2,2-trifluoroethoxy)-1H-pyrazole-5-carboxamido)-N-isopropoxy-5-methylpyrazolo[1,5-a]pyridine-7-carboxamide] |  | > 70% | > 70%
Cc1cc2ccnn2c(C(=O)NCC#N)c1NC(=O)c1cc(C(F)(F)F)nn1-c1ncccc1Cl [Compound 117, 6-(1-(3-chloropyridin-2-yl)-3-(trifluoromethyl)-1H-pyrazole-5-carboxamido)-N-(cyanomethyl)-5-methylpyrazolo[1,5-a]pyridine-7-carboxamide] |  | > 70% | > 70%
CCNC(=O)c1c(NC(=O)c2cc(C(F)(F)F)nn2-c2ncccc2Cl)c(Br)cc2ccnn12 [Compound 127, 5-bromo-6-(1-(3-chloropyridin-2-yl)-3-(trifluoromethyl)-1H-pyrazole-5-carboxamido)-N-ethylpyrazolo[1,5-a]pyridine-7-carboxamide] |  | > 70% | > 70%
COc1cc(C(=O)Nc2c(Br)cc3ccnn3c2C(=O)NC(C)C)n(-c2ncccc2Cl)n1 [Compound 130, 5-bromo-6-(1-(3-chloropyridin-2-yl)-3-methoxy-1H-pyrazole-5-carboxamido)-N-isopropylpyrazolo[1,5-a]pyridine-7-carboxamide] |  | > 70% | > 70%
COc1cc(C(=O)Nc2c(Cl)cc3ccnn3c2C(=O)NCC2CC2)n(-c2ncccc2Cl)n1 [Compound 131, 5-chloro-6-(1-(3-chloropyridin-2-yl)-3-methoxy-1H-pyrazole-5-carboxamido)-N-(cyclopropylmethyl)pyrazolo[1,5-a]pyridine-7-carboxamide] |  | > 70% | > 70%
Cc1cc2ccnn2c(C(=O)NC2CC2)c1NC(=O)c1cc(OC2CSC2)nn1-c1ncccc1Cl [Compound 145, 6-(1-(3-chloropyridin-2-yl)-3-(thietan-3-yloxy)-1H-pyrazole-5-carboxamido)-N-cyclopropyl-5-methylpyrazolo[1,5-a]pyridine-7-carboxamide] | > 70% |  | 
Cc1cc2ccnn2c(C(=O)NCC2CC2)c1NC(=O)c1cc(Cn2nnc(C(F)(F)F)n2)nn1-c1ncccc1Cl [Compound 171, 6-(1-(3-chloropyridin-2-yl)-3-((5-(trifluoromethyl)-2H-tetrazol-2-yl)methyl)-1H-pyrazole-5-carboxamido)-N-(cyclopropylmethyl)-5-methylpyrazolo[1,5-a]pyridine-7-carboxamide] |  | > 70% | > 70%
Cc1cc2ccnn2c(C(=O)NC2(C)COC2)c1NC(=O)c1cc(Br)nn1-c1ncccc1Cl [Compound 173, 6-(3-bromo-1-(3-chloropyridin-2-yl)-1H-pyrazole-5-carboxamido)-5-methyl-N-(3-methyloxetan-3-yl)pyrazolo[1,5-a]pyridine-7-carboxamide] |  | > 70% | > 70%
CCC(C)CNC(=O)c1c(NC(=O)c2cc(OC)nn2-c2ncccc2Cl)c(C)cc2ccnn12 (stereo not drawn) [Compound 199, 6-(1-(3-chloropyridin-2-yl)-3-methoxy-1H-pyrazole-5-carboxamido)-5-methyl-N-(2-methylbutyl)pyrazolo[1,5-a]pyridine-7-carboxamide] |  | > 70% | > 70%
Cc1cc2ccnn2c(C(=O)NCCC(C)C)c1NC(=O)c1cc(Br)nn1-c1ncccc1Cl [Compound 206, 6-(3-bromo-1-(3-chloropyridin-2-yl)-1H-pyrazole-5-carboxamido)-N-isopentyl-5-methylpyrazolo[1,5-a]pyridine-7-carboxamide] | > 70% |  | 
Cc1cc2ccnn2c(C(=O)NC2C[S+]([O-])C2)c1NC(=O)c1cc(Br)nn1-c1ncccc1Cl (stereo not drawn) [Compound 209, 6-(3-bromo-1-(3-chloropyridin-2-yl)-1H-pyrazole-5-carboxamido)-5-methyl-N-(1-oxidothietan-3-yl)pyrazolo[1,5-a]pyridine-7-carboxamide] |  | > 70% | > 70%
COc1cc(C(=O)Nc2c(C)cc3ccnn3c2C(=O)NC(C)C(F)(F)F)n(-c2ncccc2Cl)n1 (stereo not drawn) [Compound 217, 6-(1-(3-chloropyridin-2-yl)-3-methoxy-1H-pyrazole-5-carboxamido)-5-methyl-N-(1,1,1-trifluoropropan-2-yl)pyrazolo[1,5-a]pyridine-7-carboxamide] | > 70% |  | 
COc1cc(C(=O)Nc2c(C)cc3ccnn3c2C(=O)NC2(C)CC2)n(-c2ncccc2Cl)n1 [Compound 219, 6-(1-(3-chloropyridin-2-yl)-3-methoxy-1H-pyrazole-5-carboxamido)-5-methyl-N-(1-methylcyclopropyl)pyrazolo[1,5-a]pyridine-7-carboxamide] | > 70% |  | 
Cc1cc2ccnn2c(C(=O)NC(C)C(F)(F)F)c1NC(=O)c1cc(C(F)(F)F)nn1-c1ncccc1Cl (stereo not drawn) [Compound 220, 6-(1-(3-chloropyridin-2-yl)-3-(trifluoromethyl)-1H-pyrazole-5-carboxamido)-5-methyl-N-(1,1,1-trifluoropropan-2-yl)pyrazolo[1,5-a]pyridine-7-carboxamide] | > 70% |  | 
